Source: patent US8030300B2, “Ligands for nicotinic acetylcholine receptors, and methods of making and using them” (priority 2003, dated 2011)
pKi: −log10 of the molar value. Read-outs that look alike come from different tables or passages of the source.

What was measured:
Assay in all cases: biochemical
Format in all cases: binding
α3β4 nAChR subtype = molecular target: T1, α3β4 nAChR subtype (Rattus norvegicus, UniProt P04757+P12392)
T1 construct: expressed in transfected cells
Text: (§1) In order to assess the steric and hydropathic effects of the C-5 substituents of the pyridine on the binding affinity and subtype-selectivity at neuronal nicotinic acetylcholine receptors. […] The binding affinity ratios for a ligand, calculated from its affinities at an α subunit paired with either the β2 osubunit or the β4 subunit, represents a measure of the selectivity of that ligand with regard to the β subunits.

α4β4 nAChR subtype = molecular target: T2, α4β4 nAChR subtype (Rattus norvegicus, UniProt P09483+P12392)
T2 construct: expressed in transfected cells
T2 sequence (P12392 21-495): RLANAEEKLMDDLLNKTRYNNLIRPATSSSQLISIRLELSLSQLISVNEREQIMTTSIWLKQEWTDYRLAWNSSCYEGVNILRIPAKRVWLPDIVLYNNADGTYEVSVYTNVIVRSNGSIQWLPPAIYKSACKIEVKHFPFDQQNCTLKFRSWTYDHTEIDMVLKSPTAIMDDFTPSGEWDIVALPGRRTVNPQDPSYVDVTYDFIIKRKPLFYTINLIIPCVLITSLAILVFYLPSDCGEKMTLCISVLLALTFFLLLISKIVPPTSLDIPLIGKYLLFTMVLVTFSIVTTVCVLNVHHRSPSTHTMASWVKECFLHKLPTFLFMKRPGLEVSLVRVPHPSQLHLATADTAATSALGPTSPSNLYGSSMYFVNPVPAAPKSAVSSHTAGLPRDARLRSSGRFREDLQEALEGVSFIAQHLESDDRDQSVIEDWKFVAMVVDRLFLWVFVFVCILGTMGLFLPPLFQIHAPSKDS
T2 sequence (P09483 31-630): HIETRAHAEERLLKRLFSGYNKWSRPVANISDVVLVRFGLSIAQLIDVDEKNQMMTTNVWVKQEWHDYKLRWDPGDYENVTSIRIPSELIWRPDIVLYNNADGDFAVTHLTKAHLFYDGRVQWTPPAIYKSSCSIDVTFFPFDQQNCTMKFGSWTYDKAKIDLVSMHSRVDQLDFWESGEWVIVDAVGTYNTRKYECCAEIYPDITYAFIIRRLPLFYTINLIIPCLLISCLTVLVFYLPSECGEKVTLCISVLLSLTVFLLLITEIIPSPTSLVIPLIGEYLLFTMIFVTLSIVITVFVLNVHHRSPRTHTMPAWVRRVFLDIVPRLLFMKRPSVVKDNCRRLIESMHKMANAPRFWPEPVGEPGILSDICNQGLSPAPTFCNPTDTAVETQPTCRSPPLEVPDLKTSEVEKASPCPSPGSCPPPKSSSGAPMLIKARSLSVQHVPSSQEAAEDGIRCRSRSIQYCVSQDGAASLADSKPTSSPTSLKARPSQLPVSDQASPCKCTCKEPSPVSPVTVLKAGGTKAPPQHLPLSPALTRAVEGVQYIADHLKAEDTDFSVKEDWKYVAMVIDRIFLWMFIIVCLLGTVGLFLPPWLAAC
Text: as §1

α2β4 nAChR subtype = molecular target: T3, α2β4 nAChR subtype (Rattus norvegicus, UniProt P12389+P12392)
T3 construct: expressed in transfected cells
T3 sequence (P12389 28-511): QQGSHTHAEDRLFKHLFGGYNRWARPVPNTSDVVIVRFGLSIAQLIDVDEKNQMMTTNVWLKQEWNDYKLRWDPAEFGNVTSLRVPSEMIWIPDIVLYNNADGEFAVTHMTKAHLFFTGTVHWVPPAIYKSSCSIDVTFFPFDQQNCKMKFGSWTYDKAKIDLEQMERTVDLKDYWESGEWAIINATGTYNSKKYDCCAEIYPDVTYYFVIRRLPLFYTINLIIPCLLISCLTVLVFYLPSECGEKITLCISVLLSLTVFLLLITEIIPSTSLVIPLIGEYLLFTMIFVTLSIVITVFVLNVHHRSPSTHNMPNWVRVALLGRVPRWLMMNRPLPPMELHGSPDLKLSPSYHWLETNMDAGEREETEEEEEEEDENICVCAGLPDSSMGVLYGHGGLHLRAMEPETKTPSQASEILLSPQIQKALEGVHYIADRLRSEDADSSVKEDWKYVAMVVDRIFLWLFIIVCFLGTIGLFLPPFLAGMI
T3 sequence (P12392 21-495): as the sequence (P12392 21-495) above
Text: as §1

α4β2 nAChR subtype = molecular target: T4, α4β2 nAChR subtype (Rattus norvegicus, UniProt P09483+P12390)
T4 construct: expressed in transfected cells
T4 sequence (P12390 25-500): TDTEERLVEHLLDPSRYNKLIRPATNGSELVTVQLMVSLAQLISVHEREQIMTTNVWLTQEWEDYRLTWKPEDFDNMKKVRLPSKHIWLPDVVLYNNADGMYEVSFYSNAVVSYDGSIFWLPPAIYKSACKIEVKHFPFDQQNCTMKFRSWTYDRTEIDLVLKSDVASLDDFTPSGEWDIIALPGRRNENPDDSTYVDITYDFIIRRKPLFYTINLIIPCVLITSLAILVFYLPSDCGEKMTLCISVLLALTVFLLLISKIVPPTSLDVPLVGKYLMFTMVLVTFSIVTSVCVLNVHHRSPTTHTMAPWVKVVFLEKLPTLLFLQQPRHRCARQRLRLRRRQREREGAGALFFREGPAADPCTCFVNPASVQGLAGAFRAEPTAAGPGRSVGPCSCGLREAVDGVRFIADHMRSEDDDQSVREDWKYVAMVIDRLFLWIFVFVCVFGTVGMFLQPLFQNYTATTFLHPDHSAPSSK
T4 sequence (P09483 31-630): as the sequence (P09483 31-630) above
Text: as §1

α2β2 nAChR subtype = molecular target: T5, α2β2 nAChR subtype (Rattus norvegicus, UniProt P12389+P12390)
T5 construct: expressed in transfected cells
T5 sequence (P12390 25-500): as the sequence (P12390 25-500) above
T5 sequence (P12389 28-511): as the sequence (P12389 28-511) above
Text: as §1

α3β2 nAChR subtype = molecular target: T6, α3β2 nAChR subtype (Rattus norvegicus, UniProt P04757+P12390)
T6 construct: expressed in transfected cells
T6 sequence (P12390 25-500): as the sequence (P12390 25-500) above
T6 sequence (P04757 26-499): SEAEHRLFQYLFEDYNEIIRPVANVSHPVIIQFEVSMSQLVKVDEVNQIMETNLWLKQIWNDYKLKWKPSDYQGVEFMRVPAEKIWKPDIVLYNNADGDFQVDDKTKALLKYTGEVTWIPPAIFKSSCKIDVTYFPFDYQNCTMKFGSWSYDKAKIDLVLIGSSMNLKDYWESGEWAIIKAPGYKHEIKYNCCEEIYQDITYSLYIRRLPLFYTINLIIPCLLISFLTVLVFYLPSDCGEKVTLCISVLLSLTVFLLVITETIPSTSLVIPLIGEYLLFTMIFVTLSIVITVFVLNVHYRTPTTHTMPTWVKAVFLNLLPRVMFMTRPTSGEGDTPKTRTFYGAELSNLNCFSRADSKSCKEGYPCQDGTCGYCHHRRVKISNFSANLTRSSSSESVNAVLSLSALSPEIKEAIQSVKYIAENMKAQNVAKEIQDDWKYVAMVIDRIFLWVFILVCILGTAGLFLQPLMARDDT
Text: as §1

[1] = molecular target: T7, receptors in rat forebrain (mainly α4β2) (Rattus norvegicus, UniProt P09483+P12390)
T7 construct: from tissue; host or cells: rat forebrain homogenate
T7 sequence (P09483 31-630): as the sequence (P09483 31-630) above
T7 sequence (P12390 25-500): as the sequence (P12390 25-500) above
Text: as §1
In Vitro Inhibition of ^3H-Epibatidin Binding
The high affinity binding site for ^3H-epibatidin is most certainly binding to the α4β2 subtype of nicotinic receptors. The identity of the low affinity site is still believed to be unknown.
Tissue preparation: Preparations may be performed at 0-4° C. unless otherwise indicated. […] The tissue suspension may then be centrifuged at 27,000×g for 10 min. The supernatant is then discarded and the pellet may then be washed three times by centrifugation at 27,000×g for 10 min in 20 mL fresh buffer, and the final pellet may be resuspended in fresh buffer (400 mL per g of original tissue) and used for binding assays.
Assay: Aliquots of 2.0 mL homogenate may be added to 0.100 mL of test solution and 0.100 mL of ^3H-epibatidin (0.3 nM, final concentration), mixed and incubated for 60 min at room temperature. […] The amount of radioactivity on the filters may be determined by conventional liquid scintillation counting. Specific binding is total binding minus non-specific binding.

[2] = Ki α3β4, Table 5, rat nAChR subtypes
[3] = Ki α4β4, Table 5, rat nAChR subtypes
[4] = Ki α2β4, Table 5, rat nAChR subtypes
[5] = Ki α4β2, Table 5, rat nAChR subtypes
[6] = Ki α2β2, Table 5, rat nAChR subtypes
[7] = Ki α3β2, Table 5, rat nAChR subtypes
[8] = Ki α4β2*, Table 5, *Rat forebrain, mainly α4β2
[9] = Table 5, rat nAChR subtypes, read-out: Ki α3β4
[10] = Ki α3β4, Table 4, bivalent analogues
[11] = Ki α4β4, Table 4, bivalent analogues
[12] = Ki α2β4, Table 4, bivalent analogues
[13] = Ki α4β2, Table 4, bivalent analogues
[14] = Ki α2β2, Table 4, bivalent analogues
[15] = Ki α3β2, Table 4, bivalent analogues

T1 sequence (P04757 26-499): as the sequence (P04757 26-499) above
T1 sequence (P12392 21-495): as the sequence (P12392 21-495) above

## OC1CC2NC1CC2c1ccc(Cl)nc1 (stereo not drawn) [Ligand 7, 2-exo-(2-Chloro-5-pyridyl)-5-endo-hydroxyl-7-azabicyclo[2.2.1]heptane]
α3β4 nAChR subtype; [2]
  pKi: 6.04
α4β4 nAChR subtype; [3]
  pKi: 6.61
α2β4 nAChR subtype; [4]
  pKi: 6.62
α4β2 nAChR subtype; [5]
  pKi: 7.15
α2β2 nAChR subtype; [6]
  pKi: 7.03
α3β2 nAChR subtype; [7]
  pKi: 6.55
[1]; [8]
  pKi: 6.87

## O=C1CC2CC(c3ccc(Cl)nc3)C1N2 (racemic) [Ligand 5]
α3β4 nAChR subtype; read-out: Ki α3β4
  pKi: 5.05
α4β4 nAChR subtype; read-out: Ki α4β4
  pKi: 5.45
α2β4 nAChR subtype; read-out: Ki α2β4
  pKi: 5.49
α4β2 nAChR subtype; read-out: Ki α4β2
  pKi: 5.69
α2β2 nAChR subtype; read-out: Ki α2β2
  pKi: 6.00
α3β2 nAChR subtype; read-out: Ki α3β2
  pKi: 5.82

## CN1CCC[C@H]1COc1cccnc1 [Ligand 8, 3-(1-Methyl-2(S)-pyrrolidinylmethoxy)pyridine, reference compound]
α3β4 nAChR subtype; [2]
  pKi: 6.08
α3β4 nAChR subtype; Ki α3β4, Table 6, [3H]-EB 0.099 nM, 0.091 nM, ligand 0.00197-100 μM, n = 1
  pKi: 6.08
α4β4 nAChR subtype; [3]
  pKi: 6.69
α4β4 nAChR subtype; Ki α4β4, Table 6, [3H]-EB 0.099 nM, 0.091 nM, ligand 0.00197-100 μM, n = 1
  pKi: 6.69
α2β4 nAChR subtype; [4]
  pKi: 6.68
α2β4 nAChR subtype; Ki α2β4, Table 6, [3H]-EB 0.099 nM, 0.091 nM, ligand 0.00197-100 μM, n = 1
  pKi: 6.68
α4β2 nAChR subtype; [5]
  pKi: 8.85
α4β2 nAChR subtype; Ki α4β2, Table 6, [3H]-EB 0.099 nM, 0.091 nM, ligand 0.00197-100 μM, n = 1
  pKi: 8.85
α2β2 nAChR subtype; [6]
  pKi: 8.97
α2β2 nAChR subtype; Ki α2β2, Table 6, [3H]-EB 0.099 nM, 0.091 nM, ligand 0.00197-100 μM, n = 1
  pKi: 8.97
α3β2 nAChR subtype; [7]
  pKi: 8.04
α3β2 nAChR subtype; Ki α3β2, Table 6, [3H]-EB 0.099 nM, 0.091 nM, ligand 0.00197-100 μM, n = 1
  pKi: 8.04
[1]; Ki α4β2**, Table 6, **Forebrain mainly α4β2, [3H]-EB 0.099 nM, 0.091 nM, n = 1
  pKi: 8.29
[1]; [8]
  pKi: 8.29

## CN1CCC[C@H]1COc1cncc(C#CC(C)(C)O)c1 [Ligand 15]
α3β4 nAChR subtype
  pKi: 4.49
α4β4 nAChR subtype
  pKi: 5.30
α2β4 nAChR subtype
  pKi: 5.23
α4β2 nAChR subtype
  pKi: 8.87
α2β2 nAChR subtype
  pKi: 8.71
α3β2 nAChR subtype
  pKi: 7.71
[1]
  pKi: 8.08

## Clc1ccc(C2CC3CCC2N3CCN2C3CCC2CC3)cn1 (stereo not drawn) [ZW-84]
α3β4 nAChR subtype; [2]
  pKi: 7.17
α4β4 nAChR subtype; [3]
  pKi: 7.07
α2β4 nAChR subtype; [4]
  pKi: 7.78
α4β2 nAChR subtype; [5]
  pKi: 7.66
α2β2 nAChR subtype; [6]
  pKi: 8.15
α3β2 nAChR subtype; [7]
  pKi: 7.68
[1]; [8]
  pKi: 6.95

## Decane-1,3-N,N′-bisepibatidine [Ligand 59d]
α3β4 nAChR subtype; [9]
  pKi: 7.17
α4β4 nAChR subtype; Table 5, rat nAChR subtypes, read-out: Ki α4β4
  pKi: 7.73
α2β4 nAChR subtype; Table 5, rat nAChR subtypes, read-out: Ki α2β4
  pKi: 7.62
α4β2 nAChR subtype; Table 5, rat nAChR subtypes, read-out: Ki α4β2
  pKi: 7.99
α2β2 nAChR subtype; Table 5, rat nAChR subtypes, read-out: Ki α2β2
  pKi: 8.24
α3β2 nAChR subtype; Table 5, rat nAChR subtypes, read-out: Ki α3β2
  pKi: 8.17
[1]; Table 5, *Rat forebrain, mainly α4β2, read-out: Ki α4β2*
  pKi: 7.86

## O=c1cccc2n1C[C@@H]1CNC[C@H]2C1 [Cytisine, reference compound]
α3β4 nAChR subtype; [9]
  pKi: 6.68
α4β4 nAChR subtype
  pKi: 8.82
α2β4 nAChR subtype
  pKi: 8.45
α4β2 nAChR subtype
  pKi: 8.87
α2β2 nAChR subtype
  pKi: 9.24
α3β2 nAChR subtype
  pKi: 8.09
[1]
  pKi: 8.59

## O=C1CC2NC1CC2c1ccc(Cl)nc1 (stereo not drawn) [Ligand 4, 2-exo-(2-Chloro-5-pyridyl)-7-azabicyclo[2.2.1]heptan-5-one]
α3β4 nAChR subtype; [2]
  pKi: 5.35
α4β4 nAChR subtype; [3]
  pKi: 5.49
α2β4 nAChR subtype; [4]
  pKi: 5.94
α4β2 nAChR subtype; [5]
  pKi: 5.15
α2β2 nAChR subtype; [6]
  pKi: 6.19
α3β2 nAChR subtype; [7]
  pKi: 5.72
[1]; [8]
  pKi: 5.34

## CC(N)C#Cc1cncc(OC[C@@H]2CCCN2C)c1 (stereo partly drawn) [ZW-99]
α3β4 nAChR subtype
  pKi: 3.90
α4β4 nAChR subtype
  pKi: 5.21
α2β4 nAChR subtype
  pKi: 5.13
α4β2 nAChR subtype
  pKi: 8.14
α2β2 nAChR subtype
  pKi: 8.12
α3β2 nAChR subtype
  pKi: 7.32
[1]
  pKi: 7.38

## OCCCCC#Cc1cncc(OC[C@@H]2CCN2)c1 [Ligand 26, 5-(6-Hydroxy-1-hexynyl)-3-(2(S)-azetidinylmethoxy)pyridine]
α3β4 nAChR subtype; [2]
  pKi: 5.32
α4β4 nAChR subtype; [3]
  pKi: 7.13
α2β4 nAChR subtype; [4]
  pKi: 6.57
α4β2 nAChR subtype; [5]
  pKi: 10.05
α2β2 nAChR subtype; [6]
  pKi: 10.22
α3β2 nAChR subtype; [7]
  pKi: 9.28

## O[C@H]1C[C@H]2N[C@@H]1C[C@@H]2c1ccc(Cl)nc1 (relative stereo) [Ligand 6, 2-exo-(2-Chloro-5-pyridyl)-5-exo-hydroxyl-7-azabicyclo[2.2.1]heptane]
α3β4 nAChR subtype; [2]
  pKi: 6.65
α4β4 nAChR subtype; [3]
  pKi: 7.14
α2β4 nAChR subtype; [4]
  pKi: 7.17
α2β2 nAChR subtype; [6]
  pKi: 7.77
α3β2 nAChR subtype; [7]
  pKi: 7.71
[1]; [8]
  pKi: 7.16

## Clc1ccc(C2CC3CCC2N3CCCN2C3CCC2C(c2ccc(Cl)nc2)C3)cn1 (stereo not drawn) [Ligand 59b]
α3β4 nAChR subtype; [10]
  pKi: 7.20
α4β4 nAChR subtype; [11]
  pKi: 7.63
α2β4 nAChR subtype; [12]
  pKi: 7.80
α4β2 nAChR subtype; [13]
  pKi: 8.06
α2β2 nAChR subtype; [14]
  pKi: 8.21
α3β2 nAChR subtype; [15]
  pKi: 8.28

## OC1CC2CC(c3ccc(Cl)nc3)C1N2 (racemic) [Ligand 9]
α3β4 nAChR subtype; read-out: Ki α3β4
  pKi: 7.56
α4β4 nAChR subtype; read-out: Ki α4β4
  pKi: 8.25
α2β4 nAChR subtype; read-out: Ki α2β4
  pKi: 8.23
α4β2 nAChR subtype; read-out: Ki α4β2
  pKi: 9.04
α2β2 nAChR subtype; read-out: Ki α2β2
  pKi: 8.82
α3β2 nAChR subtype; read-out: Ki α3β2
  pKi: 8.87

## Clc1ccc(C2CC3CCC2N3CCN2C3CCC2C(c2ccc(Cl)nc2)C3)cn1 (stereo not drawn) [Ligand 59a]
α3β4 nAChR subtype; [10]
  pKi: 7.93
α4β4 nAChR subtype; [11]
  pKi: 7.74
α2β4 nAChR subtype; [12]
  pKi: 8.54
α4β2 nAChR subtype; [13]
  pKi: 7.97
α2β2 nAChR subtype; [14]
  pKi: 8.89
α3β2 nAChR subtype; [15]
  pKi: 8.25

## Clc1ccc(C2CC3CCC2N3CCCCCCCCCCN2C3CCC2C(c2ccc(Cl)nc2)C3)cn1 (stereo not drawn) [Ligand 59d]
α3β4 nAChR subtype; [10]
  pKi: 7.17
α4β4 nAChR subtype; [11]
  pKi: 7.73
α2β4 nAChR subtype; [12]
  pKi: 7.62
α4β2 nAChR subtype; [13]
  pKi: 7.99
α2β2 nAChR subtype; [14]
  pKi: 8.24
α3β2 nAChR subtype; [15]
  pKi: 8.17

## C#Cc1cncc([C@@H]2CCCN2C)c1 [SIB-1508Y, reference compound]
α3β4 nAChR subtype; read-out: Ki α3β4
  pKi: 5.35
α4β4 nAChR subtype; read-out: Ki α4β4
  pKi: 5.49
α2β4 nAChR subtype; read-out: Ki α2β4
  pKi: 5.94
α4β2 nAChR subtype; read-out: Ki α4β2
  pKi: 5.15
α2β2 nAChR subtype; read-out: Ki α2β2
  pKi: 6.19
α3β2 nAChR subtype; read-out: Ki α3β2
  pKi: 5.72

## Clc1ccc(C2CC3CCC2N3CCCCCCN2C3CCC2C(c2ccc(Cl)nc2)C3)cn1 (stereo not drawn) [Ligand 59c]
α3β4 nAChR subtype; [10]
  pKi: 7.19
α4β4 nAChR subtype; [11]
  pKi: 7.50
α2β4 nAChR subtype; [12]
  pKi: 7.43
α4β2 nAChR subtype; [13]
  pKi: 8.14
α2β2 nAChR subtype; [14]
  pKi: 8.39
α3β2 nAChR subtype; [15]
  pKi: 8.18

## O[C@H]1[C@H](c2ccc(Cl)nc2)[C@H]2CC[C@@H]1N2 (relative stereo) [Ligand 3]
α3β4 nAChR subtype; Ki α3β4
  pKi: 7.41
α4β4 nAChR subtype; Ki α4β4
  pKi: 7.95
α2β4 nAChR subtype; Ki α2β4
  pKi: 7.82
α4β2 nAChR subtype; Ki α4β2
  pKi: 8.54
α2β2 nAChR subtype; Ki α2β2
  pKi: 8.60
α3β2 nAChR subtype; Ki α3β2
  pKi: 8.14
